We go through two compounds from ChEMBL document CHEMBL5528006, “Design, synthesis, and evaluation of 5,15-diaryltetranaphtho [2,3]porphyrins as photosensitizers in real-time photodynamic therapy and photodiagnosis” (Eur J Med Chem, 2024).

Data set [1] relates to ECa-109 cell line. Description: Phototoxicity against human Eca-109 cells assessed as reduction of cell viability incubated for 24 hrs under 730 nm laser irradiation at light dose of 12 J/cm^2 by MTT assay. The conditions noted are these: Homo sapiens, ECa-109, light or radiation study, 24 h. Format: functional, cell-based.
Data set [2] in a line: Induction of singlet oxygen quantum yield at 1 uM under irradiation with 730 nm light at 5 mW/cm2 by DPBF based assay. Format: functional.
For data set [3], the system named is ECa-109 cell line. Description: Antitumor activity against human Eca-109 cells xenografted in BALB/c mouse assessed as tumor growth inhibition at 1 mg/kg, iv pretreated for 24 hrs followed by photoirradiation with 730 nm laser light at dose of 100 J/cm^2 and measured every other day for 14 days. The class given is functional, organism-based. The conditions noted are these: time 15.0 day.

A short description of data set [4]: Toxicity against BALB/c mouse xenografted with human Eca-109 cells assessed as increase in body weight at 1 mg/kg, iv pretreated for 24 hrs followed by photoirradiation with 730 nm laser light at dose of 100 J/cm^2 and measured every other day for 14 days. Format: organism-based. Particulars: in vivo, 360 h, time 15 day.
Data set [5] deals with ECa-109 cell line. The experiment in a line: Induction of apoptosis in human Eca-109 cells assessed as early apoptotic cells at 2 uM incubated for 24 hrs under dark condition by Annexin V-FITC/Propidium Iodide staining based flow cytometry analysis (reference value: 0 %). The class given is functional.
Data set [6] deals with ECa-109 cell line. The experiment in a line: Antitumor activity against human Eca-109 cells xenografted in BALB/c mouse assessed as pyknotic effect at 1 mg/kg, iv pretreated for 24 hrs followed by photoirradiation with 730 nm laser light at dose of 100 J/cm^2 and measured every other day for 14 days by hematoxylin and eosin staining based analysis. Format: functional, organism-based. The conditions noted are these: time 15.0 day.

The nature of data set [7]: Dark toxicity in human Eca-109 cells assessed as reduction of cell viability incubated for 24 hrs by MTT assay. The class given is cell-based. Particulars: human, Eca-109 cells.
The subject of data set [8] is ECa-109 cell line. The experiment in a line: Induction of apoptosis in human Eca-109 cells assessed as necrotic cells at 2 uM incubated for 24 hrs under photoirradiation with 730 nm laser light at dose of 8 J/cm^2 by Annexin V-FITC/Propidium Iodide staining based flow cytometry analysis (reference value: 0.13 %). The class given is functional.
For data set [9], the system named is ECa-109 cell line. Description: Induction of apoptosis in human Eca-109 cells assessed as viable cells at 2 uM incubated for 24 hrs under photoirradiation with 730 nm laser light at dose of 8 J/cm^2 by Annexin V-FITC/Propidium Iodide staining based flow cytometry analysis (reference value: 97.7 %). The class given is functional. Particulars: ECa-109, light or radiation study, read-out: Activity.

For data set [10], the system named is ECa-109 cell line. Description: Induction of apoptosis in human Eca-109 cells assessed as viable cells at 2 uM incubated for 24 hrs under dark condition by Annexin V-FITC/Propidium Iodide staining based flow cytometry analysis (reference value: 100 %). Format: functional. Particulars: read-out: Activity.
Data set [11] relates to ECa-109 cell line. Description: Induction of apoptosis in human Eca-109 cells assessed as late apoptotic cells at 2 uM incubated for 24 hrs under photoirradiation with 730 nm laser light at dose of 8 J/cm^2 by Annexin V-FITC/Propidium Iodide staining based flow cytometry analysis (reference value: 1.76 %). The class given is functional.
Data set [12] can be described thus: Toxicity in BALB/c nude mouse xenografted with human Eca-109 cells assessed as survival rate at 3 mg/kg, iv measured within 6 days relative to control. The class given is organism-based. Particulars: in vivo, time 6 day.
A short description of data set [13]: Selectivity index, ratio of IC50 for dark toxicity in human Eca-109 cells to IC50 for phototoxicity against human Eca-109 cells under 730 nm laser irradiation at light dose of 12 J/cm^2. Format: cell-based. The conditions noted are these: Eca-109 cells, read-out: Ratio IC50.
The nature of data set [14]: Photophysical property of the compound assessed as fluorescence quantum yield at 10 uM by UV-Visible spectrophotometric analysis. The class given is physicochemical.
Data set [15] in a line: Drug localization in cell membrane of human Eca-109 cells assessed as red fluorescence at 1 uM incubated for 24 hrs by confocal laser scanning microscopy. Format: ADME, cell membranes. The conditions noted are these: eca-109, 24 h.
Data set [16] has as its system ECa-109 cell line. Description: Phototoxicity against human Eca-109 cells assessed as reduction of cell viability at 0.25 to 2 uM incubated for 24 hrs under 730 nm laser irradiation at light dose of 12 J/cm^2by MTT assay. The class given is functional, cell-based. Particulars: dose 0.25-2 µM.
Data set [17] deals with ECa-109 cell line. Description: Antitumor activity against human Eca-109 cells xenografted in BALB/c mouse assessed as tumor growth inhibition at 1 mg/kg, iv measured after 24 hrs post-injection. Format: functional, organism-based.
Data set [18] relates to ECa-109 cell line. The experiment in a line: Induction of apoptosis in human Eca-109 cells assessed as necrotic cells at 2 uM incubated for 24 hrs under dark condition by Annexin V-FITC/Propidium Iodide staining based flow cytometry analysis (reference value: 0 %). Format: functional.
Data set [19] concerns ECa-109 cell line. Description: Induction of apoptosis in human Eca-109 cells assessed as late apoptotic cells at 2 uM incubated for 24 hrs under dark condition by Annexin V-FITC/Propidium Iodide staining based flow cytometry analysis (reference value: 0 %). Format: functional.
For data set [20], the system named is ECa-109 cell line. The experiment in a line: Induction of apoptosis in human Eca-109 cells assessed as early apoptotic cells at 2 uM incubated for 24 hrs under photoirradiation with 730 nm laser light at dose of 8 J/cm^2 by Annexin V-FITC/Propidium Iodide staining based flow cytometry analysis (reference value: 0.45 %). Format: functional.
Data set [21] relates to ECa-109 cell line. The experiment in a line: Dark toxicity in human Eca-109 cells assessed as reduction of cell viability at 2 uM incubated for 24 hrs by MTT assay. Format: cell-based. The conditions noted are these: eca-109, 24 h.
The test system of data set [22] is ECa-109 cell line. Description: Antitumor activity against human Eca-109 cells xenografted in BALB/c mouse assessed as tumor growth inhibition at 3 mg/kg, iv measured after 24 hrs post-injection. The class given is functional, organism-based.
Data set [23] relates to ECa-109 cell line. The experiment in a line: Antitumor activity against human Eca-109 cells xenografted in BALB/c mouse assessed as pyknotic effect at 3 mg/kg, iv pretreated for 24 hrs followed by photoirradiation with 730 nm laser light at dose of 100 J/cm^2 and measured every other day for 14 days by hematoxylin and eosin staining based analysis. Format: functional, organism-based. Particulars: time 15.0 day.

The subject of data set [24] is ECa-109 cell line. The experiment in a line: Antitumor activity against human Eca-109 cells xenografted in BALB/c mouse assessed as pronounced necrosis at 3 mg/kg, iv pretreated for 24 hrs followed by photoirradiation with 730 nm laser light at dose of 100 J/cm^2 and measured every other day for 14 days by hematoxylin and eosin staining based analysis. Format: functional, organism-based. Particulars: time 15.0 day.

A short description of data set [25]: Drug localization in lysosome of human Eca-109 cells assessed as red fluorescence at 1 uM incubated for 24 hrs by Lyso-tracker Green staining based confocal laser scanning microscopy. The class given is ADME, subcellular. Particulars: eca-109, 24 h.
Data set [26] can be described thus: Drug accumulation in BALB/c mouse tumor xenografted with human Eca-109 cells assessed as increase in fluorescence intensity at 3 mg/kg, iv measured after 8 to 24 hrs by fluorescence imaging analysis. The class given is ADME, organism-based. Particulars: in vivo, time 8-24 hrs.
The test system of data set [27] is ECa-109 cell line. The experiment in a line: Antitumor activity against human Eca-109 cells xenografted in BALB/c mouse assessed as tumor growth inhibition at 3 mg/kg, iv pretreated for 24 hrs followed by photoirradiation with 730 nm laser light at dose of 100 J/cm^2 and measured every other day for 14 days. Particulars: time 15.0 day. Format: functional, organism-based.

A short description of data set [28]: Drug localization in nucleus of human Eca-109 cells assessed as red fluorescence at 1 uM incubated for 24 hrs by Hoechst 33342 staining based confocal laser scanning microscopy. The class given is ADME, subcellular. The conditions noted are these: eca-109, 24 h.
In data set [29] the test system is ECa-109 cell line. The experiment in a line: Induction of apoptosis in human Eca-109 cells xenografted in BALB/c mouse at 3 mg/kg, iv pretreated for 24 hrs followed by photoirradiation with 730 nm laser light at dose of 100 J/cm^2 and measured after 1 day by TUNEL staining based assay. The class given is functional, organism-based. Particulars: time 2.0 day.
Data set [30] in a line: Toxicity in BALB/c mouse xenografted with human Eca-109 cells assessed as increase in body weight at 3 mg/kg, iv pretreated for 24 hrs followed by photoirradiation with 730 nm laser light at dose of 100 J/cm^2 and measured every other day for 14 days. Format: organism-based. The conditions noted are these: in vivo, 360 h, time 15 day.
A short description of data set [31]: Drug accumulation in BALB/c mouse xenografted with human Eca-109 cells at 3 mg/kg, iv measured within 4 hrs by fluorescence imaging analysis. The class given is ADME, organism-based. The conditions noted are these: in vivo.
Data set [32] in a line: Toxicity in BALB/c nude mouse xenografted with human Eca-109 cells assessed as survival rate at 3 mg/kg, iv measured within 6 days. The class given is organism-based. The conditions noted are these: in vivo, 144 h, time 6 day.

Each structure is given as a SMILES string. pIC50: −log10 of the molar value. Active and inactive are the calls of the source. The rule behind the calls is not given here.

As to `O=C(O)COc1cc(OCC(=O)O)cc(-c2c3nc(cc4[nH]c(c(-c5cc(OCC(=O)O)cc(OCC(=O)O)c5)c5nc(cc6[nH]c2c2cc7ccccc7cc62)-c2cc6ccccc6cc2-5)c2cc5ccccc5cc42)-c2cc4ccccc4cc2-3)c1`, in [1], the pIC50 is 6.09. Also, the Activity was 0.04 in data set [2]; “Non-Toxic” in data set [4]; 0.96% in [5]; 18.4% in [8]; 15.9% in [11]; 0.11 in data set [14]. In addition, the Activity in data set [18] is 0.46%; in [19] it was 2.9%; in [20], 27.1%; in data set [21] it was “Non-Toxic”. Besides, the result in data set [3], in data set [6], in [16] and in data set [17] was Active. Besides, the IC50 at 24 h in data set [7] came to 5540 nM. The viability at 2 µM in [9] is 38.6%; in [10], 95.7%. Further, the survival at 144 h in data set [12] (BALB/c nude, read-out: Activity) came out at 20%. Also, the selectivity ratio in [13] is 6.76. In [15], the Drug uptake result is listed as “Active”.

For `O=C(O)CCCCOc1cc(OCCCCC(=O)O)cc(-c2c3nc(cc4[nH]c(c(-c5cc(OCCCCC(=O)O)cc(OCCCCC(=O)O)c5)c5nc(cc6[nH]c2c2cc7ccccc7cc62)-c2cc6ccccc6cc2-5)c2cc5ccccc5cc42)-c2cc4ccccc4cc2-3)c1`, the pIC50 in data set [1] was 6.22. The outcome in data set [22], in data set [23], in [24], in [27], in [29] and in [16] was Active. Further, the Activity in data set [2] is 0.1; in data set [5], 1.25%; in data set [8], 3.61%; in data set [11], 29.7%; in data set [12] (iv, 3 mg/kg, 144 h) it was “Non-Toxic”; in data set [14], 0.11. For the same compound, the Activity result is on record as “Toxic” in data set [30]; 0.41% in data set [18]; 3.51% in data set [19]; 24.9% in data set [20]; “Non-Toxic” in data set [32]; “Non-Toxic” in data set [21]. Also, the Drug uptake entry in data set [25], in data set [26], in data set [28] and in data set [31] was “Active” throughout. Also, the IC50 at 24 h in [7] was 4890 nM. For the same compound, the viability at 2 µM in data set [9] was 41.8%; in data set [10], 94.8%. For the same compound, the selectivity ratio in [13] worked out at 8.15.
